{"source": "patent US11260091B2", "about": "“Red seaweed extracts, formulations and anti-microbial uses thereof” (OCEANS LTD., priority 2017, dated 2022)", "test_in_all_cases": "Liquid phase testing (bacterial growth, OD600)", "key": {"[1]": {"tested_on": "resistant Staphylococcus aureus", "format": "cell-based", "settings": "S. aureus, 30 μg/ml positive control", "method": "(§1) Stock solutions of extracts were prepared in dimethylsulfoxide (DMSO) at 10 mg/ml and stored in 200 μl aliquots at −20° C. until used. Two pathological agents were assessed: resistant Staphylococcus aureus and resistant Staphylococcus pseudointermedius. Three concentrations of each extract (5, 10 and 25 μg/ml) were evaluated in triplicate for each trial. Vehicle alone served as negative control. […] For selected samples, studies were repeated at 100 and 50 μg/ml.\n(§2) A standard micro or mini-prep chase study was conducted. Briefly, liquid media was inoculated with a starting bolus of 0.01% bacteria and spiked with test extract at the study concentrations. Samples were incubated (shaking, 37° C.) overnight for 16 hours and bacterial growth enumerated by UV spectrometry in quadruplicate."}, "[2]": {"tested_on": "resistant Staphylococcus pseudointermedius", "format": "cell-based, Staphylococcus pseudintermedius", "settings": "S. pseudo, 30 μg/ml positive control", "method": "as §1, §2"}, "[3]": {"tested_on": "P. acnes", "format": "cell-based, Propionibacterium acnes", "settings": "30 μg/ml positive control"}, "[4]": {"settings": "higher concentration study (Table 4)"}}}
{"smiles": "O=C(N[C@H](CO)[C@H](O)c1ccc([N+](=O)[O-])cc1)C(Cl)Cl", "note": "[CAP, Chloramphenicol]", "values": [{"measurement": "OD600", "setting": "[1]; Table 2", "value": 0.023}, {"measurement": "OD600", "setting": "[1]; [4]", "value": 0.002}, {"measurement": "OD600", "setting": "[2]; Table 2", "value": 0.021}, {"measurement": "OD600", "setting": "[2]; [4]", "value": 0.004}, {"measurement": "OD600", "setting": "[3]; Table 2", "value": 0.005}, {"measurement": "OD600", "setting": "[3]; [4]", "value": 0.000}]}
